Patent US20230233566A1, “INHIBITION OF BMI1 ELIMINATES CANCER STEM CELLS AND ACTIVATES ANTITUMOR IMMUNITY” (The Regents of the University of California, priority 2020, published 2023)

How the values were obtained:
[1] = test system: pIRF3; experiment: pIRF3 immunofluorescent staining in 4NQO-induced HNSCC; set-up: species or system mouse; conditions: 4NQO-induced HNSCC in vivo
[2] = test system: BMI-1; conditions: HEK293T cell line; cited from earlier work
[3] = test system: BMI1; experiment: Western blot of BMI1 and H2AUb in SCC23 and SCC1 cells; type: cell-based, human
Procedure: Human SCC23 and SCC1 cells were grown in DMEM containing 10% FBS and antibiotics (streptomycin and penicillin) at 37° C. in a 5% CO2 atmosphere. To generate lentiviruses, scramble control (shCtrl, Addgene, Cat #1864; see Sarbassov et al Science 2005 Feb. 18; 307(5712):1098-101) and BMI1 specific shRNA lentiviral plasmids (shBmi1, Sigma-Aldrich, Cat #TRCN0000020156, comprising […], SEQ ID NO:35) were transfected into HEK293T cells with two helper plasmids psPAX2 (Addgene, Cat #12260) and pMD2.G (Addgene, Cat #12259). Viral supernatant was harvested 72 h after transfection and passed through a 0.45 μm filter to remove cell debris and live cells. Collected lentiviruses were used directly to infect cells with the addition of polybrene (Sigma-Aldrich, Cat #H9268), or frozen at −80° C. for later use. […]
(§1) Cells were lysed using the radioimmunoprecipitation assay (RIPA) buffer (Sigma-Aldrich, Cat #R0278) added with a cocktail of protease inhibitors (Thermo Fisher Scientific, Cat ##78430) and phosphatase inhibitors (Sigma-Aldrich, Cat #4906845001). […] The signals were detected using the Clarity Western ECL kit (Bio-Rad, Cat #1705060). […] After treatment, supernatants were collected, and the protein levels of CCL5, CXCL9, CXCL10 and CXCL11 were measured with ELISA (R&D Systems, Cat #DRN00B, DCX900, DIP100, DCX110) according to the manufacturer's instructions.

[4] = test system: B16 melanoma; type: in vivo, mouse; conditions: B16 tumors in immunocompetent mice
Procedure: C57/6J mice were injected in the flank subcutaneously with B16 melanoma cells (250,000 cells per site). Tumors were measured every 3 days once palpable (long diameter and short diameter) with a caliper. Tumor volume was determined using the volume formula for an ellipsoid: ½×D×d^2 where D is the longer diameter and d is the shorter diameter. Mice were sacrificed when tumors reached 1000 mm^3 or upon ulceration/bleeding.

[5] = test system: CD8+ T cells; experiment: Flow cytometry of T cells in lymph nodes, blood and spleen; type: in vivo, mouse; conditions: blood and spleen of 4NQO-induced HNSCC mice
Description: PBMCs were isolated from blood using Ficoll-Paque Plus density gradient centrifugation (GE Healthcare Life Sciences, Cat #17-1440). Cervical lymph nodes and spleens were collected and processed into single-cell suspensions through mechanical separation. The isolated or dissociated cells were stained with the specific surface marker antibodies, anti-CD3-FITC (eBioscience, Cat #11-0031), anti-CD4-APC (eBioscience, Cat #17-0041), and anti-CD8-PerCP-Cy5.5 (eBioscience, Cat #45-0081) in PBS with FBS for 30 min at 4° C. Intracellular staining of IFNγ was performed as follows: cells were stimulated with PMA and ionomysin cocktail (eBioscience, Cat #00-4970) for 5 h at 37° C. with 5% CO2. Cells were washed and stained with surface marker antibodies, then fixed and permeabilized with a fixation/permeabilization kit (BD Bioscience, Cat #554715) and intracellularly stained with anti-IFNγ-PE (eBioscience, Cat #12-7311). For proper compensation of flow cytometry channels, single-stain samples were utilized, and for gating, isotype controls were applied. The stained cells were analyzed on the BD FACS flow cytometer, and data analyzed using Flowjo software.

[6] = test system: BMI1; experiment: BMI1 expression in HNSCC tumors by immunostaining and Western blot; type: in vivo, mouse; conditions: immunostaining and Western blot of HNSCC tumors
Procedure: as §1, with “#4906845001). Protein extracts were resolved on a 10% or 15% SDS polyacrylamide gel and then transferred to a polyvinylidene difluoride membrane. Membranes were blocked with 5% milk for 1 h and incubated with primary antibodies overnight at 4° C.” for “#4906845001).”

[7] = test system: xenografted HNSCC; conditions: human tumor cells in immunodeficient mice; cited from earlier work
[8] = test system: CSCs isolated from human colorectal cancers; conditions: cited from earlier work
[9] = test system: SCC23 cells; experiment: RNA-Seq and GO analysis in SCC23 cells; type: cell-based, human
Procedure: Total RNA was isolated from PTC209-treated or shBMI1 knockdown SCC cells using a RNeasy Micro Kit (QIAGEN, Cat #74004). RNA quality was examined using an Agilent 2100 Bioanalyzer. Library preparation using the KAPA RNA-Seq Library Preparation Kits (KAPA Biosystems, Cat #07960140001) was performed at the UCLA sequencing core facility, and RNAs were single-end sequenced on Illumina HiSeq 3000 machines. The online DAVID bioinformatics resources were used to analyze the differentially expressed genes under the category of GOTERM_BP_DIRECT. The heatmap was generated with Heatmap Builder. The raw data was deposited at the Gene Expression Omnibus (GEO) under the subseries entry GSE140433.

COc1cc(Br)c(Nc2nc(-c3c(C)nc4ncccn34)cs2)c(Br)c1 [PTC209, N-(2,6-dibromo-4-methoxyphenyl)-4-(2-methylimidazo[1,2-a]pyrimidin-3-yl)thiazol-2-amine]
pIRF3 in HNSCC [1]: significantly increased
IC50 [2]: 500 nM
BMI1 and H2AUb levels [3]: reduced BMI1 and H2AUb in SCC23 and SCC1 cells in a dose-dependent manner
melanoma resistance to anti-PD1 [4]: overcomes melanoma resistance to anti-PD1 by recruiting CD8+ T cells
percentage of CD8+ T cells and IFNγ-produced CD8+ T cells [5]: no significant alteration in the percentage of CD8+ T cells and IFNγ-produced CD8+ T cells
BMI1 expression in tumors [6]: Reduction of BMI1 expression
xenografted HNSCC growth [7]: inhibit xenografted HNSCC growth
colorectal tumor growth and frequency of CSCs ([8]; mouse xenograft models): inhibited colorectal tumor growth and reduced the frequency of CSCs in mouse xenograft models
self-renewal of CSCs ([8]; xenografted nude mouse model): abolish the self-renewal of CSCs isolated from human colorectal cancers
IFN-regulated chemokines (CCL5, CXCL9, CXCL10, and CXCL11), RNA-seq heatmap [9]: significantly increased
GO analysis of induced genes ([9]; RNA-Seq): induced the expression of genes associated with immune response and chemotaxis
